Source: patent publication US20120010241A1, “HSP90 INHIBITING INDAZOLE DERIVATIVES, COMPOSITIONS CONTAINING SAME AND USE THEREOF” (SANOFI, priority 2009, published 2012)

Columns and labels:
[1] = system: Her2 expression in SKBr3 cells; experiment: phenotypic SKBr3/HER2 cell test (Her2 expression at the cell surface, flow cytometry); type: cell-based; conditions: Homo sapiens, SK-BR-3, incubation for 24 h, anti-Her2 antibody coupled to PE, FACS
Method: The cellular activity of the compounds can in particular be evaluated by means of the phenotypic “SKBr3/HER2” cell test described below:
The SKBr3 […] adenocarcinoma cells, overexpressing the Her2 tyrosine kinase receptor, originate from the ATCC (HTB-30) and are cultured in McCoy's 5A medium supplemented with 10% FBS and 1% L-glutamine.
The cells are seeded in 12-well plates at a proportion of 125 000 cells per well in 1 ml of complete medium. The following day, the products are added at varying concentrations. After incubation for 24 h, the cells are trypsinized, washed with PBS and incubated with 100 ng of anti-Her2 antibody coupled to PE (phycoerythrin) (BD 340552) for 30 minutes at 4° C. in the dark. The fluorescence due to the expression of the Her2 receptor at the surface of the cells is then read using a FACS Calibur flow cytometer (Becton-Dickinson). The percentage inhibition of Her2 expression as a function of the concentrations of product tested is fitted by the nonlinear regression technique (XLfit, equation 205) in order to measure the IC50 for each product.

[2] = target: Hsp82 (Saccharomyces cerevisiae, UniProt P02829); experiment: Hsp82/ATPase test (PK/LDH coupled spectrophotometric method; malachite green method also described); type: biochemical; conditions: 1 μM Hsp82, 250 μM ATP, 37° C., absorbance at 340 nm
Hsp82, sequence (P02829 whole entry): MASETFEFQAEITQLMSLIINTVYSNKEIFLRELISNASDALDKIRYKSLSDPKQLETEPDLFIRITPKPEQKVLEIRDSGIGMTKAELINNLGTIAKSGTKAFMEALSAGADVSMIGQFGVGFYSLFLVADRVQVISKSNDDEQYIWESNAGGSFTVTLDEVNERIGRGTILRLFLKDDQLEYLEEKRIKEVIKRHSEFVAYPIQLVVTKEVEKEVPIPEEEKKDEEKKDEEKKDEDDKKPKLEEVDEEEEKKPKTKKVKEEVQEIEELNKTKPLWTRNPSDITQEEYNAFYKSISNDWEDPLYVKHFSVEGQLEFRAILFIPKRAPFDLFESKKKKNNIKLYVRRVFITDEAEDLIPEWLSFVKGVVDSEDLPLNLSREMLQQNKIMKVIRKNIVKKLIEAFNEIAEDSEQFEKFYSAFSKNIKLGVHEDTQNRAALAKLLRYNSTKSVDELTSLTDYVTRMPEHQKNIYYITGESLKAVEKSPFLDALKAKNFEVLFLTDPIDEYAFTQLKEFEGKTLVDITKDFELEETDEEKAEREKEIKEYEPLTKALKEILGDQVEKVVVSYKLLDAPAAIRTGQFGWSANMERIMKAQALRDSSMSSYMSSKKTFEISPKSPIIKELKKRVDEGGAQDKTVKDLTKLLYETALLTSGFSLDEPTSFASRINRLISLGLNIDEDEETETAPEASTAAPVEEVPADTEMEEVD
Method: The biochemical activity of the compounds can in particular be evaluated by means of the “Hsp82/ATPase” test described below:
The inorganic phosphate released during the hydrolysis of ATP by the ATPase activity of Hsp82 is quantified by the malachite green method. In the presence of this reagent, formation of the inorganic phosphate-molybdate-malachite green complex, which absorbs at a wavelength of 620 nm, occurs.
The products to be evaluated are incubated in a reaction volume of 30 μl, in the presence of 1 μM Hsp82 and of 250 μM of substrate (ATP) in a buffer composed of 50 mM Hepes-NaOH (pH 7.5), 1 mM DTT, 5 mM MgCl2 and 50 mM KCl at 37° C. for 60 min. In parallel, an inorganic phosphate range of between 1 and 40 μM is made up in the same buffer. […] The inorganic phosphate concentration of each sample is then calculated from the standard curve. The ATPase activity of Hsp82 is expressed as concentration of inorganic phosphate produced in 60 minutes. The effect of the various products tested is expressed as percentage inhibition of the ATPase activity.
The formation of ADP due to the ATPase activity of Hsp82 was used to develop another method for evaluating the enzyme activity of this enzyme by application of an enzymatic coupling system involving pyruvate kinase (PK) and lactate dehydrogenase (LDH). In this kinetic-type spectrophotometric method, PK catalyses the formation of ATP and of pyruvate from phosphoenol pyruvate (PEP) and the ADP produced by Hsp82. The pyruvate formed, which is a substrate for LDH, is subsequently converted to lactate in the presence of NADH. In this case, the decrease in the NADH concentration, measured through the decrease in absorbance at the wavelength of 340 nm, is proportional to the concentration of ADP produced by Hsp82.
The products tested are incubated in a reaction volume of 100 μl of buffer composed of 100 mM Hepes-NaOH (pH 7.5), 5 mM MgCl2, 1 mM DTT, 150 mM KCl, 0.3 mM NADH, 2.5 mM PEP and 250 μM ATP. This mixture is preincubated at 37° C. for 30 minutes before the addition of 3.77 units of LDH and 3.77 units of PK. The reaction is initiated by addition of the product to be evaluated, in varying concentrations, and of Hsp82, at the concentration of 1 μM. The enzymatic activity of Hsp82 is then measured continuously, in a microplate reader, at 37° C., at the wavelength of 340 nm. The initial rate of the reaction is obtained by measuring the slope of the tangent to the origin of the curve recorded. The enzymatic activity is expressed in μM of ADP formed per minute. The effect of the various products tested is expressed as 50% inhibitory concentration (1050) with respect to the ATPase activity, according to the codification below: […]

Q: For `Cc1nn(-c2ccc(C(N)=O)c(NC[C@H]3C[C@@H]4CC[C@H]3O4)c2)c2cccc(-c3cnc4ccccc4c3)c12` (single isomer, unassigned) [Example 19, 4-(3-methyl-4-quinolin-3-ylindazol-1-yl)-2-{[exo-1-(7-oxabicyclo[2.2.1]hept-2-yl)methyl]amino}benzamide], which IC50 [1] is on record?
A: < 1000 nM

Q: Which IC50 [1] does the source give for `Cc1nn(-c2ccc(C(N)=O)c(NC[C@@H]3C[C@@H]4CC[C@H]3O4)c2)c2cccc(-c3cnc4ccccc4c3)c12` (single isomer, unassigned) [Example 20, 4-(3-methyl-4-quinolin-3-ylindazol-1-yl)-2-{[endo-1-(7-oxabicyclo[2.2.1]hept-2-yl)methyl]amino}benzamide] here?
A: < 1000 nM

Q: For `Cc1nn(-c2ccc(C(N)=O)c(N[C@H]3CC[C@H](O)CC3)c2)c2cccc(-c3cnc4ccccc4c3)c12` [Example 1, 2-(trans-4-hydroxycyclohexylamino)-4-(3-methyl-4-quinolin-3-ylindazol-1-yl)benzamide], which IC50 [1] is on record?
A: < 1000 nM

Q: And the IC50 [2]?
A: < 1000 nM

Q: How did the IC50 [1] turn out when `Cc1nn(-c2ccc(C(N)=O)cc2)c2cccc(-c3cnc4ccccc4c3)c12` [Example 2, 4-(3-methyl-4-quinolin-3-ylindazol-1-yl)benzamide] was run?
A: 10000 to 100000 nM

Q: And the IC50 [2]?
A: 1000 to 10000 nM

Q: What does the source list for `Cc1nn(-c2ccc(C(N)=O)c(NCCCO)c2)c2cccc(-c3cnc4ccccc4c3)c12` [Example 3, 2-(3-hydroxypropylamino)-4-(3-methyl-4-quinolin-3-ylindazol-1-yl)benzamide]?
A: IC50 [1]: < 1000 nM; IC50 [2]: < 1000 nM

Q: How did the IC50 [1] turn out when `Cc1nn(-c2ccc(C(N)=O)c(NCCC3(O)CCN(C)CC3)c2)c2cccc(-c3cnc4ccccc4c3)c12` [Example 4, 2-[2-(4-hydroxy-1-methylpiperidin-4-yl)ethylamino]-4-(3-methyl-4-quinolin-3-ylindazol-1-yl)benzamide] was run?
A: < 1000 nM

Q: Which IC50 [1] does the source give for `Cc1nn(-c2ccc(C(N)=O)c(NCC(C)(C)O)c2)c2cccc(-c3cnc4ccccc4c3)c12` [Example 5, 2-(2-hydroxy-2-methylpropylamino)-4-(3-methyl-4-quinolin-3-ylindazol-1-yl)benzamide] here?
A: < 1000 nM

Q: And the IC50 [2]?
A: < 1000 nM

Q: What does the source list for `Cc1nn(-c2ccc(C(N)=O)c(NC3CC(C)(C)NC(C)(C)C3)c2)c2cccc(-c3cnc4ccccc4c3)c12` [Example 6, 4-(3-methyl-4-quinolin-3-ylindazol-1-yl)-2-(2,2,6,6-tetramethylpiperidin-4-ylamino)benzamide]?
A: IC50 [1]: < 1000 nM; IC50 [2]: < 1000 nM

Q: With `Cc1nn(-c2ccc(C(N)=O)c(NC3CCOCC3)c2)c2cccc(-c3cnc4ccccc4c3)c12` [Example 7, 4-(3-methyl-4-quinolin-3-ylindazol-1-yl)-2-(tetrahydropyran-4-ylamino)benzamide] as the compound, how does the IC50 [1] read?
A: < 1000 nM

Q: What about the IC50 [2] of the same compound?
A: < 1000 nM

Q: `Cc1nn(-c2ccc(C(N)=O)c(NCCF)c2)c2cccc(-c3cnc4ccccc4c3)c12` [Example 8, 2-(2-fluoroethylamino)-4-(3-methyl-4-quinolin-3-ylindazol-1-yl)benzamide] was tested. Which IC50 [1] did it give?
A: < 1000 nM

Q: How did the IC50 [1] turn out when `Cc1nn(-c2cnc(C(N)=O)c(NCC(C)(C)O)c2)c2cccc(-c3cnc4ccccc4c3)c12` [Example 9, 3-(2-hydroxy-2-methylpropylamino)-5-(3-methyl-4-quinolin-3-ylindazol-1-yl)pyridine-2-carboxamide] was run?
A: < 1000 nM

Q: Which results are given for `Cc1nn(-c2cnc(C(N)=O)c(NC3CCOCC3)c2)c2cccc(-c3cnc4ccccc4c3)c12` [Example 10, 5-(3-methyl-4-quinolin-3-ylindazol-1-yl)-3-(tetrahydro-pyran-4-ylamino)pyridine-2-carboxamide]?
A: IC50 [1]: < 1000 nM; IC50 [2]: < 1000 nM

Q: For `Cc1nn(-c2ccc(C(N)=O)c(N[C@H]3CC[C@H](OC(=O)CN)CC3)c2)c2cccc(-c3cnc4ccccc4c3)c12` [Example 11, aminoacetic acid trans-4-[2-carbamoyl-5-(3-methyl-4-quinolin-3-ylindazol-1-yl)phenylamino]cyclohexyl ester], which IC50 [1] is on record?
A: < 1000 nM

Q: What about the IC50 [2] of the same compound?
A: < 1000 nM

Q: `Cc1nn(-c2ccc(C(N)=O)c(N[C@H]3CC[C@H](O)CC3)c2)c2cccc(-c3nc4ccc(F)cc4[nH]3)c12` [Example 12, 4-[4-(6-fluoro-1H-benzimidazol-2-yl)-3-methylindazol-1-yl]-2-(trans-4-hydroxycyclohexylamino)benzamide] was tested. Which IC50 [1] did it give?
A: < 1000 nM

Q: And the IC50 [2]?
A: < 1000 nM

Q: Which IC50 [1] does the source give for `Cc1nn(-c2ccc(C(N)=O)c(NCC(C)(C)O)c2)c2cccc(-c3nc4ccc(F)cc4[nH]3)c12` [Example 13, 4-[4-(6-fluoro-1H-benzimidazol-2-yl)-3-methylindazol-1-yl]-2-(2-hydroxy-2-methylpropylamino)benzamide] here?
A: < 1000 nM

Q: `Cc1nn(-c2ccc(C(N)=O)c(NC3CC(C)(C)N(C)C(C)(C)C3)c2)c2cccc(-c3cnc4ccccc4c3)c12` [Example 15, 4-(3-methyl-4-quinolin-3-ylindazol-1-yl)-2-(1,2,2,6,6-pentamethylpiperidin-4-ylamino)benzamide] was tested. Which IC50 [1] did it give?
A: < 1000 nM

Q: And the IC50 [2]?
A: 1000 to 10000 nM

Q: For `Cc1nn(-c2cnc(C(N)=O)c(N[C@H]3CC[C@H](O)CC3)c2)c2cccc(-c3cnc4ccccc4c3)c12` [Example 16, 3-(trans-4-hydroxycyclohexylamino)-5-(3-methyl-4-quinolin-3-ylindazol-1-yl)pyridine-2-carboxamide], which IC50 [1] is on record?
A: < 1000 nM

Q: How did the IC50 [1] turn out when `Cc1nn(-c2cnc(C(N)=O)c(NC3CC(C)(C)N(C)C(C)(C)C3)c2)c2cccc(-c3cnc4ccccc4c3)c12` [Example 17] was run?
A: < 1000 nM

Q: For `NC(=O)c1ccc(-n2nc(C(F)(F)F)c3c(-c4cnc5ccccc5c4)cccc32)cc1N[C@H]1CC[C@H](O)CC1` [Example 21, 2-(trans-4-hydroxycyclohexylamino)-4-(4-quinolin-3-trifluoromethylindazol-1-yl)benzamide], which IC50 [1] is on record?
A: < 1000 nM

Q: `NC(=O)c1ccc(-n2nc(C(F)(F)F)c3c(-c4nc5ccc(F)cc5[nH]4)cccc32)cc1N[C@H]1CC[C@H](O)CC1` [Example 22, 4-[4-(6-fluoro-1H-benzimidazol-2-yl)-3-trifluoromethylindazol-1-yl]-2-(trans-4-hydroxycyclohexylamino)benzamide] was tested. Which IC50 [1] did it give?
A: 1000 to 10000 nM

Q: For `NC(=O)c1ncc(-n2nc(C(F)(F)F)c3c(-c4cnc5ccccc5c4)cccc32)cc1N[C@H]1CC[C@H](O)CC1` [Example 23, 3-(trans-4-hydroxycyclohexylamino)-5-(4-quinolin-3-yl-3-trifluoromethylindazol-1-yl)pyridine-2-carboxamide], which IC50 [1] is on record?
A: < 1000 nM

Q: How did the IC50 [1] turn out when `NC(=O)c1ccc(-n2ncc3c(-c4cnc5ccccc5c4)cccc32)cc1N[C@H]1CC[C@H](O)CC1` [Example 24, 2-(trans-4-hydroxycyclohexylamino)-4-(4-quinolin-3-ylindazol-1-yl)benzamide] was run?
A: < 1000 nM

Q: How did the IC50 [1] turn out when `NC(=O)c1ccc(-n2ncc3c(-c4cnc5ccccc5c4)cccc32)cc1` [Example 25, 4-(4-quinolin-3-ylindazol-1-yl)benzamide] was run?
A: 10000 to 100000 nM

Q: For `NC(=O)c1ncc(-n2nc(Cl)c3c(-c4cnc5ccccc5c4)cccc32)cc1N[C@H]1CC[C@H](O)CC1` [Example 26, 5-(3-chloro-4-quinolin-3-ylindazol-1-yl)-3-(trans-4-hydroxycyclohexylamino)pyridine-2-carboxamide], which IC50 [1] is on record?
A: < 1000 nM

Q: For `CC(C)(O)CNc1cc(-n2nc(Br)c3c(-c4cnc5ccccc5c4)cccc32)cnc1C(N)=O` [Example 27, 5-(3-bromo-4-quinolin-3-ylindazol-1-yl)-3-(2-hydroxy-2-methylpropylamino)pyridine-2-carboxamide], which IC50 [1] is on record?
A: < 1000 nM
